Structures are written as SMILES.

Assay [1] has as its target T1, human α2C adrenergic receptor (Homo sapiens, UniProt P18825).
T1 construct: expressed in transfected cells
Nature of the assay: Binding at human α2C adrenergic receptor. The conditions noted are these: read-out: hα2C Ki. An excerpt: (§1) Other receptors: Cell membranes expressing human dopamine D1, D2, D4 and rat D3 receptors were purchased through BioSignal, Inc. (Montreal, Canada). Binding assays using the histamine H1 receptor; dopamine receptors; and α1A, α1B, and α2 adrenergic receptors may be carried out according to the procedures described in U.S. Pat. No. 5,780,485, the disclosure of which is hereby incorporated by reference in its entirety into this application. Binding assays using the dopamine D5 receptor may be carried out according to the procedures described in U.S. Pat. No. 5,882,855, the disclosure of which is hereby incorporated by reference in its entirety into this application. Binding assays for the human α1D adrenergic receptor may be carried out according to the procedures described in U.S. Pat. No. 6,156,518, the disclosure of which is hereby incorporated by reference in its entirety into this application.
(§2) Binding data were analyzed using nonlinear regression and statistical techniques available in the GraphPAD Prism package (San Diego, Calif.). Enzymatic assay data were derived from a standard curve of reference compound data.

In assay [2] the target is T2, human α1B adrenergic receptor (Homo sapiens, UniProt P35368).
T2 construct: expressed in transfected cells
Nature of the assay: Binding at human α1B adrenergic receptor. To be noted: read-out: hα1B Ki.
Source text: as §1, §2

The target in another assay is T3, human 5HT6 receptor (Homo sapiens, UniProt P50406).
T3 construct: expressed in transfected cells
The assay can be described thus: Radioligand binding at 5-HT6 receptor. The conditions noted are these: read-out: h5HT6 Ki. The procedure:
Other 5-HT ReceDtors: Other serotonin receptor binding assays were performed according to published methods: rat 5HT2c receptor (Julius et al., 1988); and 5-HT6 (Monsma, et al., 1993). The binding assays using the 5-HT4 receptor were performed according to the procedures described in U.S. Pat. No. 5,766,879, the disclosure of which is hereby incorporated by reference in its entirety into this application.
as §2

For the next assay, the target named is T4, human GAL2 receptor (Homo sapiens, UniProt O43603).
T4 construct: expressed in transfected cells
T4 sequence (O43603 1-387): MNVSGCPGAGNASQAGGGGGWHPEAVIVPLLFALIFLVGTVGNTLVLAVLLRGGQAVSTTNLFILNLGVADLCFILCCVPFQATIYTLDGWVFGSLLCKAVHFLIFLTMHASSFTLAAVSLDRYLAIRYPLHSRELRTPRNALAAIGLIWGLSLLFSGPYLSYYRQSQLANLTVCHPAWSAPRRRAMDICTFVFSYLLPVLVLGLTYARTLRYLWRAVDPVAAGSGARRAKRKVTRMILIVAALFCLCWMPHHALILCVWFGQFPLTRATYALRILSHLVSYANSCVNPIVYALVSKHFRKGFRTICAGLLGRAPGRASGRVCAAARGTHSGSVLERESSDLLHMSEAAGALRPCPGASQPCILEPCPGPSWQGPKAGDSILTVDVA
The assay can be described thus: Radioligand binding at cloned human GAL2 receptor. To be noted: indolones, Table 4, read-out: Ki (nM) GalR 2. The procedure:
The present invention provides for a method of determining the binding affinity of a GAL3 antagonist, wherein the GAL3 antagonist is dissolved in a “suitable solvent”. A “suitable solvent” means one which permits the measurement of binding affinity of the GAL3 antagonist to the human GAL3 receptor at concentrations less than 1 μM, preferably less than 100 nM. Examples of solvents include, but are not limited to, DMSO, ethanol, N,N-dimethylacetamide, or water. For indolones, the preferred solvent is 3% DMSO (final concentration in the assay). For pyrimidines, the preferred solvent is 1% ethanol/0.09% polypuronic acid F-127 (final concentration in the assay). For any other type of compounds, the preferred solvent is the solvent which permits the measurement of binding affinity of a GAL3 antagonist at the lowest concentration. Once a suitable solvent is ascertained for the binding assay of the human GAL3 receptor, the same solvent is used in assays to determine the binding affinity for instance, at the GAL1 receptor.
The binding properties of the pyrimidines of the present invention were evaluated at the cloned human galanin receptors, GAL1, GAL2, and GAL3, using protocols described herein.
The binding properties of the indolones of the present invention were evaluated at the cloned human galanin receptors, GAL1, GAL2, and GAL3, using protocols described herein.
LM(tk-) cells were stably transfected with the human GAL1 or GAL3 receptor. CHO cells were stably transfected with the human GAL2 receptor.
cDNAs for the human and rat GAL1, and human and rat GAL3 receptors were transfected with a G-418 resistant gene into the mouse fibroblast LM(tk-) cell line by a calcium phosphate transfection method (Cullen, 1967). Stably transfected cells were selected with G-418. Human and rat GAL2 receptors were similarly transfected into CHO cells.
Membranes were harvested from stably transfected LM(tk-) cells. Adherent cells were washed twice in ice-cold phosphate buffered saline (138 mM NaCl, 8.1 mM Na2HPO4, 2.5 mM KCl, 1.2 mM KH2PO4, 0.9 mM CaCl2, 0.5 mM MgCl2, pH 7.4) and lysed by sonication in ice-cold sonication buffer (20 mM Tris-HCl, 5 mM EDTA, pH 7.7). Large particles and debris were cleared by low speed centrifugation (200×g, 5 min, 4° C.). Membranes were collected from the supernatant fraction by centrifugation (32,000×g, 18 min, 4° C.), washed with ice-cold hypotonic buffer, and collected again by centrifugation (32,000×g, 18 min, 4° C.). The final membrane pellet was resuspended by sonication into a small volume of ice-cold binding buffer (−1 ml for every 5 plates: 10 mM NaCl, 20 mM HEPES, 0.22 mM KH2PO4, 1.26 mM CaCl2, 0.81 mM MgSO4, pH 7.4). Protein concentration was measured by the Bradford method (Bradford, 1976) using Bio-Rad Reagent, with bovine serum albumin as a standard. Membranes were held on ice for up to one hour and used fresh, or flash frozen and stored in liquid nitrogen. Membranes were prepared similarly from CHO cells.
Galanin Receptors: Binding assays were performed according to the following published methods: human GAL3 (PCT International Publication No. WO 98/15570), human GAL1 (PCT International Publication No. WO 95/2260) human GAL2 (PCT International Publication No. WO 97/26853).
as §2

The target of the next assay is T5, DA transporter (Rattus norvegicus, UniProt P23977).
T5 construct: native, tissue-derived transporters; from tissue
Nature of the assay: Binding at native DA transporter. The conditions noted are these: read-out: rDA Uptk Ki. The procedure:
The methods to determine binding affinity at native transporters are described in the following publications: 5HT transporter and NE transporter (Owens et al., 1997), and DA transporter (Javitch et al, 1984).
as §2

T1 sequence (P18825 whole entry): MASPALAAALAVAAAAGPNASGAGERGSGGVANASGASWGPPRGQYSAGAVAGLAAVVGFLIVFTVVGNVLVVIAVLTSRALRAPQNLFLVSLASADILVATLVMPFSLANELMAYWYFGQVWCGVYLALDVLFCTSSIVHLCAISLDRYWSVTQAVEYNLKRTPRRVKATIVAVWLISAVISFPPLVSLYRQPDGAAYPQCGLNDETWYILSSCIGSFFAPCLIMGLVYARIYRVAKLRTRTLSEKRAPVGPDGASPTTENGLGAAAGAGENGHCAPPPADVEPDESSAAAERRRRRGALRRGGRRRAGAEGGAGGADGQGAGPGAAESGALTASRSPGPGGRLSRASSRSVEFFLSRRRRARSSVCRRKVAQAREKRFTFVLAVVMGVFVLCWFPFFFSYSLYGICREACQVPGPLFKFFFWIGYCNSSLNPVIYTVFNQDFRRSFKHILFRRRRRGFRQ
T5 sequence (P23977 whole entry): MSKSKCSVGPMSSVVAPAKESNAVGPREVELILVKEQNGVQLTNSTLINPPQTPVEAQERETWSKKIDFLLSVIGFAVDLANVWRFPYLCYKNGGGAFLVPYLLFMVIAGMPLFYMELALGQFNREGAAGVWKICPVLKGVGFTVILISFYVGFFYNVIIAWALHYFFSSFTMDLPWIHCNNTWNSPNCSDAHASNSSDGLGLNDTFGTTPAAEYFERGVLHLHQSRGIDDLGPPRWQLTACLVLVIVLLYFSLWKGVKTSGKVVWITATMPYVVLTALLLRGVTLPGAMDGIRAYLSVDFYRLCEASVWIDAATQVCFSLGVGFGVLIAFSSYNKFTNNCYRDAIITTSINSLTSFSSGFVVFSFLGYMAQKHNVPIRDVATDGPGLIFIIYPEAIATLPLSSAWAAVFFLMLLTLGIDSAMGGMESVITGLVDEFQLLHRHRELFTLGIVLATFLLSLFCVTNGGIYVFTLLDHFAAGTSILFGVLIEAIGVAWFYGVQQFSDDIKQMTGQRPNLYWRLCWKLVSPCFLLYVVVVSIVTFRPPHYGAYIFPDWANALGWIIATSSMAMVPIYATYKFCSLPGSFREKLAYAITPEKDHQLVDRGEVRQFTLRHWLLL
T3 sequence (P50406 whole entry): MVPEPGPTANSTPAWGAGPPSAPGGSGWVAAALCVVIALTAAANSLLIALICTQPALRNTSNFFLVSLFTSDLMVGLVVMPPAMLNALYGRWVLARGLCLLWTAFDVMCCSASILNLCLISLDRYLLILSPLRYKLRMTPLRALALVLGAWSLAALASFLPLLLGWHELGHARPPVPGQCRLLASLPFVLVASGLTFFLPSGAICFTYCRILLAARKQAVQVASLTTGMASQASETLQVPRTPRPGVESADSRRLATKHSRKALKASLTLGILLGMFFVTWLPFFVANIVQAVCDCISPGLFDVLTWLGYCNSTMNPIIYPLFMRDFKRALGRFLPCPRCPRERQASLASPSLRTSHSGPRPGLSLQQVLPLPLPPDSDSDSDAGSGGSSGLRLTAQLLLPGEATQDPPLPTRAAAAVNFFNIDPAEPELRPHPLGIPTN
T2 sequence (P35368 whole entry): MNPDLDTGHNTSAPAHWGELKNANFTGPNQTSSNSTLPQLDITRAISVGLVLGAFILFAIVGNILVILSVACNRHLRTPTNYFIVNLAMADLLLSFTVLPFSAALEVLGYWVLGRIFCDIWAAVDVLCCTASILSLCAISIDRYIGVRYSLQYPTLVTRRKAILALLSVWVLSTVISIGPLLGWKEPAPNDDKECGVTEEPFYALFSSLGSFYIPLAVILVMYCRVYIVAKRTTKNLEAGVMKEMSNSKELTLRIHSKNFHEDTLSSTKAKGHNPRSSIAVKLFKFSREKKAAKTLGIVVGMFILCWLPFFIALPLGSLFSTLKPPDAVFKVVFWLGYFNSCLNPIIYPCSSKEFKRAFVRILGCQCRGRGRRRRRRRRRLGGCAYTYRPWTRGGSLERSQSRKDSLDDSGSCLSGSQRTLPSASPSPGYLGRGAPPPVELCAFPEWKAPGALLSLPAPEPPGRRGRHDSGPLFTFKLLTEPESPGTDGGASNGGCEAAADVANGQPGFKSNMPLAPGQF

Turning to `O=C1C(=Nc2cccc(C(F)(F)F)c2)c2ccccc2N1c1ccccc1` [Example 92, 1-PHENYL-3-[[3-(TRIFLUOROMETHYL)PHENYL]IMINO]-1,3-DIHYDRO-2H-INDOL-2-ONE], the Ki (as a rule, the dissociation constant of the complex between target and ligand, obtained from inhibition or displacement) in assay [1] was above 50 µM; in assay [2], above 50 µM; on human 5HT6 receptor, above 50 µM; at human GAL2 receptor, above 10000 nM; on DA transporter it was 17.8 µM.

The values are drawn from US20040110821A1, “GAL3 receptor antagonists for the treatment of affective disorders” (priority 2002, published 2004).
